Experimental data: patent US20230045629A1, “TREATMENT OF PROGRESSIVE SUPRANUCLEAR PALSY” (NATIONAL UNIVERSITY CORPORATION TOKAI NATIONAL HIGHER …, priority 2020, published 2023)

System: AT8-positive phosphorylated tau
Experiment: Actin polymerization inhibitor on phosphorylated tau in primary cortical neurons from fetal mouse brain electroporated in utero with FLNA, fluorescent immunostaining
Assay type: cell-based
Conditions: wild-type FLNA introduced at E14, primary cortical neurons collected at E15, 2 DIV; compared with 0.1% DMSO (control)
Source text: FIG. 17-2: Continued from FIG. 17. (b): Each plasmid was introduced into a fetal mouse brain in a mouse at 14 days of gestation (E14) by in utero electroporation, and primary cortical neurons were collected at 15 days of gestation (E15), followed by 2-day cell culture (2 DIV) and then fluorescent immunostaining. At the time of administration of 0.1% DMSO (control), the expression level of AT8-positive phosphorylated tau was increased because of wild-type FLNA (FLNA^WT) but not at the time of administration of an actin polymerization inhibitor cytochalasin D (CytoD). The multiple asterisks “***” indicate a Tukey's test P value of less than 0.001.
The FLNA gene was induced into the brain of a fetal mouse in a mouse at 14 days of gestation (E14).

## C=C1[C@@H](C)[C@H]2[C@H](Cc3ccccc3)NC(=O)[C@]23[C@H](OC(C)=O)/C=C/[C@@](C)(O)C(=O)[C@@H](C)C/C=C/[C@H]3[C@@H]1O [cytochalasin D (CytoD)]
  expression level of AT8-positive phosphorylated tau: did not cause an increase
